Data reported in BigSolDB 2.1.

COC(=O)C(C)(C)N=NC(C)(C)C(=O)OC
Settings | solubility (mole fraction)
in ethyl acetate, 285.65 K | 0.558
in ethyl acetate, 288.05 K | 0.611
in ethyl acetate, 290.55 K | 0.668
in ethyl acetate, 293.25 K | 0.744
in isobutanol, 252.65 K | 0.0055
in isobutanol, 256.55 K | 0.0084
in isobutanol, 259.45 K | 0.0111
in isobutanol, 262.95 K | 0.013
in isobutanol, 265.65 K | 0.0155
in isobutanol, 269.35 K | 0.0205
in isobutanol, 273.55 K | 0.0388
in isobutanol, 275.95 K | 0.0587
in isobutanol, 278.15 K | 0.0813
in isobutanol, 280.65 K | 0.122
in isobutanol, 283.45 K | 0.194
in isobutanol, 285.75 K | 0.279
in isobutanol, 288.05 K | 0.355
in isobutanol, 290.95 K | 0.521
in isobutanol, 293.15 K | 0.643
in isopropanol, 252.05 K | 0.0065
in isopropanol, 256.25 K | 0.0081
in isopropanol, 258.95 K | 0.01
in isopropanol, 262.45 K | 0.0141
in isopropanol, 265.75 K | 0.0199
in isopropanol, 268.75 K | 0.0272
in isopropanol, 273.35 K | 0.0484
in isopropanol, 275.45 K | 0.0653
in isopropanol, 278.05 K | 0.0853
in isopropanol, 280.75 K | 0.137
in isopropanol, 283.15 K | 0.189
in isopropanol, 285.45 K | 0.26
in isopropanol, 287.95 K | 0.345
in isopropanol, 290.85 K | 0.5
in isopropanol, 293.15 K | 0.627
in methanol, 252.95 K | 0.0142
in methanol, 255.35 K | 0.0156
in methanol, 257.65 K | 0.0169
in methanol, 261.55 K | 0.0203
in methanol, 265.35 K | 0.0253
in methanol, 267.15 K | 0.0308
in methanol, 273.55 K | 0.0633
in methanol, 275.85 K | 0.0722
in methanol, 278.65 K | 0.0863
in methanol, 280.65 K | 0.122
in methanol, 283.05 K | 0.182
in methanol, 285.55 K | 0.248
in methanol, 288.15 K | 0.364
in methanol, 290.65 K | 0.482
in methanol, 293.15 K | 0.626
in n-butanol, 252.35 K | 0.0064
in n-butanol, 256.35 K | 0.0076
in n-butanol, 259.15 K | 0.0091
in n-butanol, 262.55 K | 0.0111
in n-butanol, 265.55 K | 0.0145
in n-butanol, 269.75 K | 0.0232
in n-butanol, 273.65 K | 0.0385
in n-butanol, 276.15 K | 0.0541
in n-butanol, 278.35 K | 0.0801
in n-butanol, 281.15 K | 0.123
in n-butanol, 283.55 K | 0.18
in n-butanol, 285.65 K | 0.251
in n-butanol, 288.15 K | 0.33
in n-butanol, 291.05 K | 0.486
in n-butanol, 293.15 K | 0.63
in n-propanol, 253.35 K | 0.0088
in n-propanol, 257.05 K | 0.0107
in n-propanol, 259.65 K | 0.0133
in n-propanol, 262.15 K | 0.0162
in n-propanol, 266.25 K | 0.0234
in n-propanol, 271.05 K | 0.0385
in n-propanol, 274.95 K | 0.0613
in n-propanol, 276.65 K | 0.0783
in n-propanol, 278.85 K | 0.098
in n-propanol, 281.15 K | 0.125
in n-propanol, 283.55 K | 0.173
in n-propanol, 286.15 K | 0.25
in n-propanol, 288.45 K | 0.352
in n-propanol, 291.05 K | 0.47
in n-propanol, 293.15 K | 0.611
in tetrachloromethane, 252.55 K | 0.109
in tetrachloromethane, 256.95 K | 0.125
in tetrachloromethane, 260.35 K | 0.144
in tetrachloromethane, 264.05 K | 0.182
in tetrachloromethane, 266.85 K | 0.214
in tetrachloromethane, 269.55 K | 0.242
in tetrachloromethane, 273.65 K | 0.314
in tetrachloromethane, 276.15 K | 0.349
in tetrachloromethane, 278.45 K | 0.393
in tetrachloromethane, 280.75 K | 0.445
in tetrachloromethane, 283.35 K | 0.506
in tetrachloromethane, 285.75 K | 0.564
in tetrachloromethane, 288.15 K | 0.632
in tetrachloromethane, 290.55 K | 0.696
in toluene, 253.45 K | 0.104
in toluene, 256.35 K | 0.119
in toluene, 259.55 K | 0.141
in toluene, 262.55 K | 0.161
in toluene, 264.85 K | 0.184
in toluene, 269.55 K | 0.237
in toluene, 273.65 K | 0.286
in toluene, 276.05 K | 0.326
in toluene, 278.25 K | 0.367
in toluene, 280.65 K | 0.41
in toluene, 283.15 K | 0.47
in toluene, 285.55 K | 0.545
in toluene, 288.05 K | 0.597
in toluene, 290.95 K | 0.67
in toluene, 293.15 K | 0.731
